From the NIST ThermoML archive (doi:10.1021/je034182z)
± gives the expanded uncertainty stated by the source.

How the values were obtained:
[1] = 298.15 K; 101.33 kPa; Liquid
[2] = refractive index (Na D-line) (dimensionless); settings: 298.15 K; 101.33 kPa; Liquid; Standard Abbe refractometry

Compound	mass density [1] [kg/m3]	refractive index [2]
CCCCCC [hexane]	655.1 ± 0.7	1.3747 ± 0.0007
CCCCCCC [heptane]	679.4 ± 0.8	1.3854 ± 0.0007
Cc1cccc(C)c1 [1,3-dimethylbenzene]	860.3 ± 0.5	1.4947 ± 0.0007

Results, then the compound that gave them:

mass density [1] [kg/m3]	refractive index [2]	Compound
881.9 ± 1.3	1.4047 ± 0.0007	C1CCOC1 [tetrahydrofuran]
698.5 ± 0.8	1.3954 ± 0.0007	CCCCCCCC [octane]
